The values that follow come from US20150086647A1, “PEROXYGEN RELEASE COMPOSITIONS AND METHOD FOR PRODUCING THEM” (CREACHEM SA, priority 2012, published 2015).

The nature of the series: Stability in the presence of ferric EDTA (Fe-catalyzed hydrogen peroxide decomposition). Format: physicochemical. The note with it: with ferric EDTA; for hydrogen peroxide concentration: diluted with tap water. The protocol: Approximately 250 μL of a 3% solution of ferric EDTA (ethylenediaminetetracetic acid), at pH 7, was added to 3.5 grams of the composition obtained from EXAMPLE I.
The same amount of ferric EDTA was added to 3.5 grams of a 27.5% wt H2O2 solution. Both the 3.5 grams of the composition according to EXAMPLE I and the 3.5 grams H2O2 solution, both containing the ferric EDTA, were diluted with a quantity of tap water until the water contained 50 ppm of H2O2, determined with colorimetric reagent strips (Merck).
The following table indicates the evolution of the hydrogen peroxide concentration (ppm) in both samples.

On to H2O2 [Diluted H2O2], for which the “gas bubbles indicating Fe-catalyzed hydrogen peroxide decomposition” value (diluted to 50 ppm H2O2) was “appeared almost instantly”. Moreover, the hydrogen peroxide concentration is, setting by setting: (0 h) 50 ppm; (4 h) 20 ppm; (18 h) 15 ppm.
